# Test system: dithranol-induced mouse ear inflammation (edema)
# Test: Dithranol-induced mouse ear inflammation test
# Assay type: in vivo
# Details: Swiss male mice, 10 per group; 20 μL solution painted on left ear at Time 0 and +16 h; dithranol 30 μg in 20 μL acetone at +0.5 h; 6 mm ear disks weighed at +24 h
# Method: Dithranol is a known inflammatory agent, which induces inflammatory response by releasing free radicals.
# The modulatory effects of the compositions of the present invention were tested using the dithranol-induced mouse ear inflammation test described in “Methods in Molecular Biology, 2003, Vol 225; 129-137”, and in “Br. J. Pharmacol. 1991, 104; 990-994”.
# Swiss male mice (10 per group) of 6 to 8 weeks old; weighing 28-32 g each; were used. Mice had free access to food and water.
# The compounds of the invention were dissolved in water or ethanol (depending on their solubility). 20 μL of the solution containing the compound of the invention, or their combinations, was painted on the left ear (back and front; 10+10 μL) using a Hamilton syringe within 30 seconds (Time 0) The compound tested, and their combinations, are reported in the following
# A similar volume of vehicle (water or ethanol) was applied to the other ear (control ear).
# After 30 minutes (Time+0.5 h) the irritant, dithranol, 30 μg in 20 μL of acetone was painted on the left ear (back and front, 10+10 μL).
# A similar volume of acetone was applied to the other ear.
# A group of mice treated only with dithranol (no treatment with the compounds of the invention) was present (control group).
# An electric hair dryer for a few seconds to evaporate the solvent was used.
# The compounds of the invention were administered again 16 hours from the first treatment (Time+16 h).
# After 24 hours from the first treatment (Time+24 h) the animals were killed with an overdose of diethyl ether and the ears were cut off.
# A disk from the middle part of each ear was cut off, using a sharp punch 6 mm in diameter.
# The disks samples were weighted on a suitable balance, and the extent of the edema (as percentage of inhibition) was calculated according to the formula reported on page 991, right column, of “Br. J. Pharmacol. 1991, 104; 990-994” mentioned above.
row,Compound,% Inhibit. (extent of the edema as percentage of inhibition) [%]
1,O=C(O)CCCC[C@@H]1SC[C@@H]2NC(=O)N[C@@H]21 [Biotin],6
2,CC(C)=CCC[C@](C)(O)C1CC=C(C)CC1 (stereo partly drawn) [Bisabolol],6
3,C[N+](C)(C)C[C@H](O)CC(=O)[O-] [L-carnitine],9
4,CC(C)(CO)[C@@H](O)C(=O)NCCCO [Panthenol],7
5,Vitamin B12,8
6,Vitamin E,8
